Reference: patent US20240059693A1, “FUSED BICYCLIC PYRAZOLE DERIVATIVES AND METHODS OF USE THEREOF FOR THE TREATMENT OF HERPESVIRUSES” (Merck Sharp & Dohme LLC, priority 2020, published 2024)
Read-outs that look alike come from different tables or passages of the source.

Assays:
[1] = molecular target: T1, Human cytomegalovirus DNA polymerase (Human cytomegalovirus, UniProt P08546); assay: HCMV polymerase assay (AlphaLISA); format: biochemical; details: HCMV DNA polymerase 0.2 nM, 60 minutes at 37° C.; read-out: CMV (IC50)
T1 construct: made in house; host or cells: SF21 insect cells (baculovirus vector)
T1 sequence (P08546 whole entry): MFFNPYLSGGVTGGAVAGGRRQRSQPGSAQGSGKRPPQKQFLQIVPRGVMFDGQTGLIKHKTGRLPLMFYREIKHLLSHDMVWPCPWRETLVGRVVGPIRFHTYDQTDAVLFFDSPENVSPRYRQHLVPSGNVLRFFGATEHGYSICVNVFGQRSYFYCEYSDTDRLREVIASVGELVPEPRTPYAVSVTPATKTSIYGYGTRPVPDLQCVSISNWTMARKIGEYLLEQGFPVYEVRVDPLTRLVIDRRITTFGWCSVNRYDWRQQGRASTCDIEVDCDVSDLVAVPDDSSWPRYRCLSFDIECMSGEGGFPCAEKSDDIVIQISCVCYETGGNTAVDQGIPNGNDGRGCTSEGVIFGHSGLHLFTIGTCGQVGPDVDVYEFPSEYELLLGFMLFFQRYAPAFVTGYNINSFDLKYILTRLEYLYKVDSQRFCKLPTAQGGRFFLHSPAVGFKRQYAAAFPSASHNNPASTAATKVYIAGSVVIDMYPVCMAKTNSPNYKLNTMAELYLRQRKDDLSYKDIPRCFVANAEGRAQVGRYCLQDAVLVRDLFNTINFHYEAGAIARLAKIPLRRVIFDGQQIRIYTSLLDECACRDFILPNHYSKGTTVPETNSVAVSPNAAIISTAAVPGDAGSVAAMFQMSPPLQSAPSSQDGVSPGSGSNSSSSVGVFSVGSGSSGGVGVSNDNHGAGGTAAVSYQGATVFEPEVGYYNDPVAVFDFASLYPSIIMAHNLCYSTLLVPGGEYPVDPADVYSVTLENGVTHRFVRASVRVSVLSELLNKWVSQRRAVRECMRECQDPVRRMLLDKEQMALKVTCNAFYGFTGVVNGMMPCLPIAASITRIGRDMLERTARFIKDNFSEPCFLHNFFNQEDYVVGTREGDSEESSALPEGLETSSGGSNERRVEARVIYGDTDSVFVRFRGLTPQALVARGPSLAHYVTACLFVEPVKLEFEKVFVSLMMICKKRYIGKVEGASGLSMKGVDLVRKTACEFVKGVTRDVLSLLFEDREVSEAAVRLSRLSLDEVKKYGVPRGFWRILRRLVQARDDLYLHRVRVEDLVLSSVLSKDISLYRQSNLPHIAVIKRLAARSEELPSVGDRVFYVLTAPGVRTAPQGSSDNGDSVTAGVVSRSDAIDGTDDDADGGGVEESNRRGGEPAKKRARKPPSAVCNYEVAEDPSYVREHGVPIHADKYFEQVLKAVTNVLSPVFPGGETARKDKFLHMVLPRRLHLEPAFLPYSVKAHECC
Method in brief: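 Baculovirus/SF21-expressed polymerase (HCMV 0.2 nM; VZV 0.4 nM) pre-incubated 30 min at room temperature with compound in HEPES pH 7.5 buffer, then 60 min at 37 °C with 1.6 nM DIG-primer/template, sub-nM to 24 nM dNTPs and 0.8 nM biotin-dUTP. AlphaLISA detection; IC50 from 4-parameter fit.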

[2] = molecular target: T2, varicella zoster virus DNA polymerase (Varicella-zoster virus, UniProt P09252); assay: VZV polymerase assay (AlphaLISA); format: biochemical; details: VZV DNA polymerase 0.4 nM, 60 minutes at 37° C.
T2 construct: made in house; host or cells: SF21 insect cells (baculovirus vector)
T2 sequence (P09252 whole entry): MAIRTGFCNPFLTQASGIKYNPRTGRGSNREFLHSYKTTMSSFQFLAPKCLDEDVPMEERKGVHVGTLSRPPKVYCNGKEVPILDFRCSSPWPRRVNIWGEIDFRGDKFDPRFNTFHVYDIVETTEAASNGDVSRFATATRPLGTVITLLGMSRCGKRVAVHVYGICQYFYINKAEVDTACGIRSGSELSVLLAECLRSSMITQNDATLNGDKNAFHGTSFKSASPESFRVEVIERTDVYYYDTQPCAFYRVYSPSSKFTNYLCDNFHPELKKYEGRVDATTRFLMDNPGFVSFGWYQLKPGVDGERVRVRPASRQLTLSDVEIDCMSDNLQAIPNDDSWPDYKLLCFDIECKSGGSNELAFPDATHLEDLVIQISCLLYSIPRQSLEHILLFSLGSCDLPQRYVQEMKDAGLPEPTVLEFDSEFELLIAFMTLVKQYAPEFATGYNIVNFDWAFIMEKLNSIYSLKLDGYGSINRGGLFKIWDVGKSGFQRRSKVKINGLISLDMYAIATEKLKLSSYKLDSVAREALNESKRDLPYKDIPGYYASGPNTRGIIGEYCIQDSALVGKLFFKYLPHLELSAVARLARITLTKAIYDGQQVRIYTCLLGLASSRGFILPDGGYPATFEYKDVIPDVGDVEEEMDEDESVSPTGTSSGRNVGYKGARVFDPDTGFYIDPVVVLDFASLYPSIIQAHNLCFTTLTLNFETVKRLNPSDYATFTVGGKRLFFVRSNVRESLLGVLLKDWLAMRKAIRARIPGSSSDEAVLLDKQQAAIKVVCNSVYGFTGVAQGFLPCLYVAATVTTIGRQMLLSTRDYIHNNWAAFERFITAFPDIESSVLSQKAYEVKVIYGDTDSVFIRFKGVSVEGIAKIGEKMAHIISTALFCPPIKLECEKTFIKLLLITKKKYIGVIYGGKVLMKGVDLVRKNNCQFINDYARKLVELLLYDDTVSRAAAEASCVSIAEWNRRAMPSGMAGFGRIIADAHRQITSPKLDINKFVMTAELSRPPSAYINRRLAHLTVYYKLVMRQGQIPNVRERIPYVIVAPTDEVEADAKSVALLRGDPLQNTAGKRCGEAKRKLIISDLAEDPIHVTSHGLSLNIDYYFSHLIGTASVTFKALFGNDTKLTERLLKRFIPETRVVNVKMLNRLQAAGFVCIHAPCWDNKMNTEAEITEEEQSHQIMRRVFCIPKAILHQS
Method: Human cytomegalovirus and varicella zoster virus DNA polymerases were expressed via baculovirus vector in SF21 cells and purified. Heterodimeric nucleic acid substrate used in the herpesvirus polymerase reactions was generated by annealing a 59-mer template to a 17-mer digoxigenin-labeled primer. Polymerase (HCMV final concentration of 0.2 nM; VZV final concentration of 0.4 nM) was combined with an inhibitor compound or DMSO in assay buffer (10 mM HEPES, pH 7.5, 25 mM KCl, 25 mM NaCl, 5 mM MgCl2, 5% glycerol, 0.67 mg/ml bovine serum albuminutes, and 1 mM tris(2-carboxyethyl)phosphine), and this mixture was pre-incubated for 30 minutes at room temperature in 384-well microtiter plates. The polymerization reaction was initiated by the addition of template/primer substrate (final concentration: 1.6 nM), and dNTPs (final concentration: 24 nM dCTP, 24 nMdGTP, 16 nM dATP, 16 nM dTTP, and 0.8 nM biotin-dUTP). After 60 minutes incubation at 37° C., reactions were terminated with quench buffer (25 mM HEPES pH 7.5, 100 mM NaCl, 0.25% Tween-20, 12 mM EDTA, and 1 mg/ml bovine serum albumin). Incorporation of biotinylated UTP was detected with 2.5-ug/ml anti-DIG AlphaLISA acceptor beads and 5-10 ug/ml streptavidin AlphaLISA donor beads (Perkin Elmer). Compound effects were normalized to the window defined by the controls (DMSO only and pre-quenched wells) and were fit using a 4-parameter algorithm to report an IC50.

HCMV Strain AD169 = assay: Viral qPCR assay, HCMV in MRC-5 cells; format: cell-based, Human cytomegalovirus; details: read-out: CMV MRC5 Cell (EC50)
Method in brief: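 MRC-5 cells infected in suspension with HCMV AD169 (0.05-0.1 pfu/cell) and added to 10-point 3-fold compound dilutions, in growth media or media with 50% FBS. After ~72 h at 37 °C, lysates analysed by TaqMan qPCR against a plasmid standard curve, viral copies normalised to PPIA or not. EC50 from 4-parameter fit.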

HSV2 [3] = assay: Viral qPCR assay, HSV2 in Vero cells; format: cell-based, Herpes Simplex Virus type 2; details: ~72 hrs, read-out: HSV2 VERO Cell (EC50)
Method: (§1) MRCS cells, Vero cells, and MeWo cells were obtained from ATCC and were maintained at 37° C./5% CO2/90% relative humidity in Minimal Essential Medium with 10% fetal bovine serum, […] L-glutamine, 100 units/ml penicillin and 100 ug/ml streptomycin. Assay plates were prepared by dispensing compounds dissolved in DMSO into wells of 384 well collagen-coated plates using an ECHO acoustic dispenser. Each compound was tested in a 10-point, serial 3-fold dilution. Controls included uninfected cells and infected cells treated only with DMSO. Assays were initiated by mixing selected cells, in suspension, with virus, and dispensing 50 μl/well infected cells to pre-plated compounds. Plates were incubated at 37° C./5% CO2/90% relative humidity for ˜72 hrs to permit genomic replication, and infected cells were lysed by the addition of an equal volume of lysis buffer (10 mM Tris-HCl, pH8, 50 mM KCl, 2 mM MgCl2, 0.45% NP-40, 0.45% Tween-20, and 100 μg/ml proteinase K). An aliquot of the lysate was transferred to a 384-well PCR plate and incubated at 56° C. for 1 hour and then at 95° C. for 10 min. Levels of a viral gene and of the cellular control, PPIA (Thermo Fisher Assay ID=Hs04194521_s1), were measured in separate 10 μL qPCR assays using TaqMan® Gene Expression Master Mix (Applied Biosystems), and an 7900HT Fast Real-Time PCR System with 384-Well Block Module. 7-point, serial 10-fold dilutions of a plasmid standard were run on each plate to generate a standard curve, and genome copies numbers were calculated by plotting experimental Ct onto linear regression of the standard curve. Viral genome copy numbers were normalized by cellular control copy number, and compound effects were normalized to the window defined by the controls. Calculated % effects were fit using a 4-parameter algorithm, and EC50 was reported.
as §1, with “gene” for “gene and of the cellular control, PPIA (Thermo Fisher Assay ID=Hs04194521_s1),”, “in” for “in separate”, “Compound effects on viral” for “Viral”, “number” for “numbers were normalized by cellular control copy number, and compound effects”

HSV-1 Strain F [4] = assay: Viral qPCR assay, HSV-1 in Vero cells; format: cell-based, Herpes Simplex Virus type 1; details: read-out: HSV1 VERO Cell (EC50)
Method: as §1
as §1, with “gene” for “gene and of the cellular control, PPIA (Thermo Fisher Assay ID=Hs04194521_s1),”, “in” for “in separate”, “Compound effects on viral” for “Viral”, “number” for “numbers were normalized by cellular control copy number, and compound effects”
(§2) VZV: Strain Street was maintained as an infected cell stock in MRC-5 cells. It was assayed in MeWo or MRCS cells and was used at 0.04-0.1 pfu/cell. The assays were performed in growth medium. Primer-probe set was Thermo Fisher Assay ID=AIPAEXQ. HSV-1: Strain F Street was assayed in Vero or MRCS cells and was used at 0.0005-0.004 pfu/cell in growth medium. Primer-probe set was Thermo Fisher Assay ID=AIBJZIB

VZV = assay: Viral qPCR assay, VZV in MRC5 cells; format: cell-based, varicella zoster virus; details: read-out: VZV MRC5 Cell (IC50)
Method: as §1
as §1, with “gene” for “gene and of the cellular control, PPIA (Thermo Fisher Assay ID=Hs04194521_s1),”, “in” for “in separate”, “Compound effects on viral” for “Viral”, “number” for “numbers were normalized by cellular control copy number, and compound effects”
as §2

HSV-1 Strain F [5] = assay: Viral qPCR assay, HSV-1 in MRC5 cells; format: cell-based, Herpes Simplex Virus type 1; details: read-out: HSV1 MRC5 Cell (EC50)
Method: as §1
as §1, with “gene” for “gene and of the cellular control, PPIA (Thermo Fisher Assay ID=Hs04194521_s1),”, “in” for “in separate”, “Compound effects on viral” for “Viral”, “number” for “numbers were normalized by cellular control copy number, and compound effects”
as §2

HSV2 [6] = assay: Viral qPCR assay, HSV2 in MRC5 cells; format: cell-based, Herpes Simplex Virus type 2; details: read-out: HSV2 MRC5 Cell (EC50)
Method: as §1
as §1, with “gene” for “gene and of the cellular control, PPIA (Thermo Fisher Assay ID=Hs04194521_s1),”, “in” for “in separate”, “Compound effects on viral” for “Viral”, “number” for “numbers were normalized by cellular control copy number, and compound effects”

[7] = Human betaherpesvirus 5, AD169, MRC5, 72 h
[8] = Human alphaherpesvirus 1, Vero, 72 h
[9] = Human alphaherpesvirus 3, MRC5, 72 h
[10] = Human alphaherpesvirus 1, MRC5, 72 h
[11] = Human alphaherpesvirus 2, MRC5, 72 h

Compound	IC50 [1]	IC50 [2]	EC50 (HCMV Strain AD169; [7])	IC50 (VZV; [9])	EC50 (HSV-1 Strain F [5]; [10])	EC50 (HSV2 [6]; [11])	other results
O=C(NCc1ccc(Cl)cc1)c1nn(CCNC(=O)C2CCC2)c2c1CN(Cc1ccncc1F)C2 [Compound 69]	173 nM	84.9 nM					
C[C@@H]1c2c(C(=O)NCc3ccc(Cl)cc3)nn(C)c2CN1C[C@H]1CCC(=O)N1 [Compound 125]	1370 nM						EC50 (HCMV Strain AD169; MRC5 cells, ~72 hrs): 2980 nM; EC50 (HSV2 [3]): 8040 nM; EC50 (HSV-1 Strain F [4]; ~72 hrs): 4980 nM
CN(CCn1nc(C(=O)NCc2ccc(Cl)cc2)c2c1CN(Cc1c(F)cncc1F)C2)C(=O)C1CCC1 [Compound 63]	99.3 nM	76 nM					
CN(CCn1nc(C(=O)NCc2ccc(Cl)cc2)c2c1CN(Cc1ccnc(F)c1)C2)C(=O)C1CCC1 [Compound 66]	112 nM	48.6 nM					
CC1c2c(c(C(=O)NCc3ccc(Cl)cc3)nn2C)CN1C[C@@H]1CCC(=O)N1 (stereo partly drawn) [Compound 101]	531 nM	391 nM					EC50 (HCMV Strain AD169; MRC5 cells, ~72 hrs): 32700 nM; EC50 (HSV-1 Strain F [4]; ~72 hrs): 29100 nM
Cn1nc(C(=O)NCc2ccc(Cl)cc2)c2c1C1(CCC1)N(C[C@@H]1CCC(=O)N1)C2 [Compound 123]	1210 nM	898 nM	14600 nM				EC50 (HSV-1 Strain F [4]; [8]): 13300 nM
CN(CCn1nc(C(=O)NCc2ccc(Cl)cc2)c2c1CN(Cc1ccncc1F)C2)C(=O)C1CCC1 [Compound 68]	123 nM	59.1 nM					
O=C1CC[C@H](CN2Cc3c(C(=O)NCc4ccc(Cl)cc4)nn(CCN4CC(F)C4)c3C2)N1 [Compound 4]	52.6 nM	32.6 nM	2980 nM				EC50 (HSV-1 Strain F [4]; [8]): 26100 nM
O=C1CC[C@H](CN2Cc3c(C(=O)NCc4ccc(Cl)cc4)nn(Cc4nccs4)c3C2)N1 [Compound 48]	69.7 nM	118 nM	4020 nM				
O=C1CC[C@@H](CN2Cc3c(C(=O)NCc4ccc(Cl)cc4)nn(C(F)F)c3C2)N1 [Compound 45]	37.8 nM		798 nM	1030 nM	1990 nM	1040 nM	
CC(C1CCC(=O)N1)N1Cc2c(C(=O)NCc3ccc(Cl)cc3)nn(C)c2C1 (single isomer, unassigned) [Compound 1]	235 nM						IC50 (VZV; ~72 hrs): 7530 nM; EC50 (HCMV Strain AD169; MRC5 cells, ~72 hrs): 4480 nM; EC50 (HSV-1 Strain F [5]; ~72 hrs): 9980 nM; EC50 (HSV2 [6]; ~72 hrs): 6740 nM
Cn1nc(C(=O)NCc2ccc(Cl)cc2)c2c1C(CO)N(C[C@H]1CCC(=O)N1)C2 (stereo partly drawn) [Compound 122]	195 nM	24.1 nM					EC50 (HCMV Strain AD169; MRC5 cells, ~72 hrs): 1310 nM; EC50 (HSV-1 Strain F [4]; ~72 hrs): 860 nM
O=C1CC[C@H](CN2Cc3c(C(=O)NCc4ccc(Cl)cc4)nn(-c4ncccn4)c3C2)N1 [Compound 28]	15.2 nM						IC50 (VZV; ~72 hrs): 210 nM; EC50 (HCMV Strain AD169; MRC5 cells, ~72 hrs): 108 nM; EC50 (HSV-1 Strain F [5]; ~72 hrs): 139 nM; EC50 (HSV2 [6]; ~72 hrs): 89.5 nM
Cn1nc(C(=O)NCc2ccc(Cl)cc2)c2c1CC(CC1CCC(=O)N1)C2 (single isomer, unassigned) [Compound 128]	1060 nM	289 nM					
Cn1nc(C(=O)NCc2ccc(Cl)cc2)c2c1CN(C[C@@H]1CC(F)C(=O)N1)C2 (stereo partly drawn) [Compound 79]	69.6 nM		232 nM	1170 nM	1180 nM	935 nM	
Cc1csc(-n2nc(C(=O)NCc3ccc(Cl)cc3)c3c2CN(C[C@H]2CCC(=O)N2)C3)n1 [Compound 12]	23 nM		175 nM	220 nM	160 nM	44.8 nM	
Cc1cn(C)c(-n2nc(C(=O)NCc3ccc(Cl)cc3)c3c2CN(C[C@H]2CCC(=O)N2)C3)n1 [Compound 19]	90.6 nM		399 nM	535 nM	650 nM	333 nM	
Cn1nc(C(=O)NCc2ccc(Cl)cc2)c2c1CN(C[C@H]1CC(F)C(=O)N1)C2 (stereo partly drawn) [Compound 78]	252 nM		2880 nM	2870 nM	3030 nM	2220 nM	
Cc1cnc(-n2nc(C(=O)NCc3ccc(Cl)cc3)c3c2CN(C[C@H]2CCC(=O)N2)C3)s1 [Compound 11]	22.7 nM		263 nM	170 nM	172 nM	50.6 nM	
Cc1nc(-n2nc(C(=O)NCc3ccc(Cl)cc3)c3c2CN(C[C@H]2CCC(=O)N2)C3)sc1C [Compound 10]	20.9 nM		434 nM	172 nM	189 nM	124 nM	
CC1(C(=O)NCCn2nc(C(=O)NCc3ccc(Cl)cc3)c3c2CN(C[C@H]2CCC(=O)N2)C3)CC1 [Compound 26]	16.2 nM	10.2 nM	2630 nM				EC50 (HSV-1 Strain F [4]; [8]): 66100 nM
CCC1c2c(c(C(=O)NCc3ccc(Cl)cc3)nn2C)CN1C[C@@H]1CCC(=O)N1 (single isomer, unassigned) [Compound 103]	17.4 nM						IC50 (VZV; ~72 hrs): 104 nM; EC50 (HCMV Strain AD169; MRC5 cells, ~72 hrs): 157 nM; EC50 (HSV-1 Strain F [5]; ~72 hrs): 172 nM; EC50 (HSV2 [6]; ~72 hrs): 63 nM
